Data published in paper PMC9994261 (Cell, 2023).
Values after ≈ are worked out from the molar mass of the structure shown. Like-named read-outs stand apart in the source and are kept apart here.

What was measured:
Mtb methylated ribosome = assay: Mtb in vitro translation assay with methylated (erythromycin-treated) ribosome; format: biochemical, Mycobacterium tuberculosis; details: read-out: Translation inhibition of Mtb methylated ribosome (IC50 μM)
Mtb H37Rv LuxAB [1] = assay: microbe, parasite or virus in culture; format: cell-based; details: Mycobacterium tuberculosis
Mtb H37Rv [2] = format: cell-based, Mycobacterium tuberculosis; details: 7-day treatment
RAW264.7 cells = format: in vitro ADME, murine; details: RAW macrophages, 10 μM
Protocol: RAW264.7 cells were allowed to adhere in 96 wells plates for 4 hours before compounds were added at 10 μM. Intracellular concentrations were measured by LC-MS/MS after cellular lysis. For each point, up to 4 hours, the Intra/Extra cellular ratio was calculated. Points are the mean ± SD of four tests. Clarithromycin and Azithromycin were used as references.

M. bovis BCG Pasteur = assay: microbe, parasite or virus in culture; format: cell-based, Mycobacterium bovis
[3] = format: in vitro ADME
[4] = format: in vitro ADME, human
Protocol: The metabolic stability of test compounds was determined as described.[57]^,[58] Incubation and experimental conditions with human hepatic microsomal fractions (purchased from BD Gentest as a pooled batch from 6 donors) were as follows: microsomal proteins, 1 mg/mL; bovine serum albumin, 1 mg/mL; substrate, 5 μM; incubation duration, 20 min; cytochrome P-450 monooxygenases (CYPs) and flavin containing monooxygenases (FMOs) cofactor, 1 mM NADPH. Enzyme activity was stopped with 1 volume of acetonitrile. […] For each test compound and for each microsomal preparation, three incubations were prepared: absolute reference in buffer (without enzyme material, i.e., microsomes); incubation without NADPH cofactor (with microsomal fractions); and incubation with NADPH (with microsomal fractions). For most compounds, biotransformation, as observed in hepatic microsomal fractions in the presence of the NADPH cofactor, consists of oxidative reactions catalyzed by either CYPs or FMOs. In these conditions, the percentage of total metabolism, which corresponds to oxidative metabolism, was determined as follows: [% total metabolism] ≈ [% oxidative metabolism] = [unchanged compound (UC) peak area − NADPH UC peak area + NADPH] × 100%, where NADPH corresponds to the enzyme cofactor for oxidation reactions catalyzed by either CYP or FMO.

in vivo = details: male, Swiss, mouse, po; for AUC: oral 30 mg/kg
in vitro = in vitro ADME; details: human, Caco-2; read-out: Permeability in Caco2 cells (Papp)
[5] = pH 2, 50% acetonitrile/water
Mtb H37Rv [6] = assay: microbe, parasite or virus in culture; format: cell-based, Mycobacterium tuberculosis
[7] = format: in vitro ADME; remark: listed apart in the source
CYP3A4 = target: T1, CYP3A4 (Homo sapiens, UniProt P08684); assay: CYP3A4 reversible inhibition in human liver microsomes; format: in vitro ADME
T1 construct: human liver microsomes (purchased from BD Gentest as a pooled batch from 150 donors); tissue BD Gentest Cat#452117; host or cells: pooled human liver microsomes (150 donors)
T1 sequence (P08684 whole entry): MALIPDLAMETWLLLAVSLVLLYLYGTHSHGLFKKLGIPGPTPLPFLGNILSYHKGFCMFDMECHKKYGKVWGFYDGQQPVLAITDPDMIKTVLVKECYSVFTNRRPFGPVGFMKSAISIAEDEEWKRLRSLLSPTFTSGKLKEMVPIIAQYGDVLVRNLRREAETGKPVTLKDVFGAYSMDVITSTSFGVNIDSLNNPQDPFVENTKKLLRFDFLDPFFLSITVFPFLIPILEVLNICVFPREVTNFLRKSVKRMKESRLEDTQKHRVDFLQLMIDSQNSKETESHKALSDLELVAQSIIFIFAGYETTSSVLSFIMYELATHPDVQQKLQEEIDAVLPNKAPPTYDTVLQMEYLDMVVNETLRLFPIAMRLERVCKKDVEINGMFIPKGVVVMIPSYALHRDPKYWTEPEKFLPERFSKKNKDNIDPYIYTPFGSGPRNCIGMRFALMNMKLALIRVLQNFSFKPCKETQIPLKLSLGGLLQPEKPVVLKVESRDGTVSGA
Protocol: Incubations were performed with 0.1 mg/mL human liver microsomes (purchased from BD Gentest as a pooled batch from 150 donors) in a final incubation volume of 0.25 mL. The incubation medium contained 0.05 M phosphate buffer (pH 7.4) containing an NADPH regenerating system (including 1.3 mM NADP, 3.3 mM glucose 6-phosphate,3.3 mM MgCl2, and 1.0 U/mL glucose 6-phosphate dehydrogenase). Probe CYP3A4 substrates (midazolam at 3 μM and testosterone at 50 μM), were incubated for 10 and 30 min, respectively, with increasing concentrations of GM, MGM or CGM (concentration range: 1 - 30 μM). The reaction was stopped by adding acetonitrile to precipitate the proteins. The incubation mixtures were then centrifuged for 5 min at 10,000 × g, and an aliquot of the supernatant was analyzed using high-performance liquid chromatography coupled to mass spectrometry for the assessment of 1’-hydroxymidazolam and 6β-hydroxytestosterone metabolite formation.

[8] = tested on: GFP-expressing Mtb H37Rv in RAW264.7 macrophages; assay: Intramacrophage assay (MIC for Mtb in macrophages); format: cell-based, Mycobacterium tuberculosis; details: Mycobacterium tuberculosis, H37RV
Mtb H37Rv [9] = assay: Combination study in mouse model of TB; format: in vivo; details: 4 weeks
Mtb H37Rv LuxAB [10] = assay: microbe, parasite or virus in culture; format: cell-based; details: Mycobacterium tuberculosis; remark: listed apart in the source
[11] = mouse po 10 mg/kg, PEG200/Tween80/Citrate Buffer 100mM pH4 (70/5/25)
[12] = mouse po 100 mg/kg, Lipidic formulation CremophorRH40/Capryol90/Mygliol812N (10/20/70) diluted in ½ water
[13] = mouse po 100 mg/kg, PEG200/Tween80/Citrate Buffer 100mM pH4 (70/5/25)
[14] = mouse po 300 mg/kg, PEG200/Tween80/Citrate Buffer 100mM pH4 (70/5/25)

With `CON=C1CC(C)OC(OC2C(C)CC(C)(OC(=O)NC(C)(C)CNS(=O)(=O)c3ccccc3)C(=O)C(C)C(OC(=O)CC(C)C)C(C)C(C(C)COC3OC(C)C(O)C(OC)C3OC)OC(=O)C(C)C(OC3CC(C)N(C)CC(C)O3)C2C)C1O` (stereo not drawn) [SEQ-9] the “Lung AUC0-24” value [11] was 7800 ng·h/mL, the “Lung Cmax” value [11] was 790 ng/mL and the “Lung AUC0-24” value [12] was 440000 ng·h/mL. The “Lung Cmax” value [12] was 31900 ng/mL, the “Lung AUC0-24” value [13] was 190000 ng·h/mL and the “Lung Cmax” value [13] was 32900 ng/mL. For the same compound, the “Lung AUC0-24” value [14] was 840000 ng·h/mL, the “Lung Cmax” value [14] was 252000 ng/mL and the “Higher plasma AUC compared with SEQ-372” value (same oral dose of 30 mg/kg in mouse) was 6 fold. For the same compound, the IC50 (Mtb methylated ribosome) was 0.064 µM, the MIC (Mtb H37Rv LuxAB [1]; read-out: MIC for Mtb under anaerobic conditions (LORA)) was 0.6 µM (≈ 0.746 µg/mL) and the MBC (Mtb H37Rv LuxAB [1]; read-out: Minimal bactericidal concentration (MBC) for Mtb under anaerobic conditions (LORA)) was 6.3 µM (≈ 7.83 µg/mL). The “log CFU reduction (in vitro bactericidal activity)” value (Mtb H37Rv [2]; 30 μM) was 1.5 log CFU, the “log CFU reduction (in vitro bactericidal activity)” value (Mtb H37Rv [2]; 60 μM) was 2.5 log CFU and the “Intra-macrophage ratio (intra versus extracellular concentration)” value (RAW264.7 cells) was about 60 fold. The “Growth inhibition (MIC80)” value (M. bovis BCG Pasteur) was 0.56 µM, the MIC80 (M. bovis BCG Pasteur; Mycobacterium tuberculosis variant bovis BCG, BCG, read-out: Growth inhibition (MIC80)) was 0.32 µM (≈ 0.398 µg/mL) and the MIC (M. bovis BCG Pasteur; Mycobacterium tuberculosis variant bovis BCG, BCG, read-out: MIC in Pasteur M. bovis BCG) was 0.32 µM (≈ 0.398 µg/mL). For the same compound, the “Metabolic stability in mouse liver microsomes (% metabolized compound after 20 min)” value [3] was 8%, the “Metabolic stability in human liver microsomes (% metabolized compound after 20 min)” value ([4]; 20 min incubation) was 10% and the “Metabolic stability in human liver microsomes (% metabolized compound after 20 min), (K)” value ([4]; in presence of ketoconazole CYP3A inhibitor (K)) was 0(K) %. For the same compound, the “Metabolic stability in human liver microsomes (% metabolized compound after 20 min), (Q)” value ([4]; in presence of quinidine CYP2D6 inhibitor (Q)) was “/10(Q) %”, the bioavailability (in vivo) was 23% and the AUC(0-t) (in vivo; 10 mg/kg, pH 4) was 1100 ng·h/mL. For the same compound, the Cmax (in vivo; 10 mg/kg, pH 4) was 140 ng/mL, the half-life (in vivo; 10 mg/kg, pH 4, Lung t1/2, mouse po 10 mg/kg, PEG200/Tween80/Citrate Buffer 100mM pH4 (70/5/25)) was 4.5 h and the half-life (in vivo; 10 mg/kg, pH 4, Plasma t1/2, mouse po 10 mg/kg, PEG200/Tween80/Citrate Buffer 100mM pH4 (70/5/25)) was 3 h. The Kp (in vivo; 30 mg/kg) was 19, the AUC (in vivo; 30 mg/kg, AUC in lung @30 mg/kg, lung) was 120000 ng·h/mL and the AUC (in vivo; 30 mg/kg, AUC in plasma @30 mg/kg, plasma) was 6300 ng·h/mL. For the same compound, the AUC(0-t) (in vivo; 100 mg/kg) was 22000 ng·h/mL, the Cmax (in vivo; 100 mg/kg) was 2130 ng/mL and the half-life (in vivo; 100 mg/kg, Lung t1/2, mouse po 100 mg/kg, Lipidic formulation CremophorRH40/Capryol90/Mygliol812N (10/20/70) diluted in ½ water) was 4.5 h. The half-life (in vivo; 100 mg/kg, Plasma t1/2, mouse po 100 mg/kg, Lipidic formulation CremophorRH40/Capryol90/Mygliol812N (10/20/70) diluted in ½ water) was 4.2 h, the AUC(0-t) (in vivo; 100 mg/kg, pH 4) was 11000 ng·h/mL and the Cmax (in vivo; 100 mg/kg, pH 4) was 1390 ng/mL. It also gave a half-life (in vivo; 100 mg/kg, pH 4, Lung t1/2, mouse po 100 mg/kg, PEG200/Tween80/Citrate Buffer 100mM pH4 (70/5/25)) of 6.5 h, a half-life (in vivo; 100 mg/kg, pH 4, Plasma t1/2, mouse po 100 mg/kg, PEG200/Tween80/Citrate Buffer 100mM pH4 (70/5/25)) of 4.4 h and an AUC(0-t) (in vivo; 300 mg/kg, pH 4) of 21000 ng·h/mL. The Cmax (in vivo; 300 mg/kg, pH 4) was 3110 ng/mL, the half-life (in vivo; 300 mg/kg, pH 4, Lung t1/2, mouse po 300 mg/kg, PEG200/Tween80/Citrate Buffer 100mM pH4 (70/5/25)) was 11 h and the Papp (in vitro) was 1.5 ×10⁻⁶ cm/s. The “Chemical stability: t/12@pH 2” value [5] was 48 h, the MIC (Mtb H37Rv [6]; Mycobacterium tuberculosis, ERDMAN / H37Rv, H37Rv/Erdman, read-out: MIC (μM) for Mtb in liquid culture) was 0.7 µM (≈ 0.87 µg/mL) and the MIC (Mtb H37Rv [6]; Mycobacterium tuberculosis, H37RV, read-out: MIC for Mtb in liquid culture) was 0.7 µM (≈ 0.87 µg/mL). For the same compound, the MIC (Mtb H37Rv [6]; read-out: MIC for Mtb in liquid culture) was 0.70 µM (≈ 0.87 µg/mL), the pKa (physchem) was 8.3 and the “Metabolic degradation/clearance from human liver microsomes” value [7] was 0.03 mL/h/10^6 hepatocytes. For the same compound, the “Cytochrome 3A4 inhibition (in words)” value (CYP3A4) was “abolished”, the IC50 at 10 min (CYP3A4; human, microsomes, pH 7.4, midazolam, read-out: CYP3A4 inhibition, IC50 with midazolam as substrate) was over 30 µM and the IC50 at 30 min (CYP3A4; human, microsomes, pH 7.4, testosterone, read-out: CYP3A4 inhibition, IC50 with testosterone as substrate (T)) was over 50 µM. For the same compound, the MIC ([8]; read-out: MIC (μM) for Mtb in macrophages) was 0.15 µM (≈ 0.187 µg/mL), the MIC ([8]; read-out: MIC for Mtb tuberculosis in macrophages) was 0.11 µM (≈ 0.137 µg/mL) and the “Additional reduction of lung CFU compared with B or Pa alone” value (Mtb H37Rv [9]; SEQ-9 300 mg/kg added to B or Pa) was “approximately 1 log10 CFU”. The “Additional reduction of lung CFU compared with L or Z alone” value (Mtb H37Rv [9]; SEQ-9 300 mg/kg added to L or Z) was “approximately 0.5 log units”, the MIC (Mtb H37Rv LuxAB [10]; read-out: MIC (μM) for Mtb in liquid culture + 25% human serum) was 1.2 µM and the MIC (Mtb H37Rv LuxAB [10]; read-out: MIC (μM) for Mtb in liquid culture + 25% mouse serum) was 2.1 µM.
